What was measured:
S. thermophilus CNRZ1066 = assay: Natural transformation in CDM upon addition of synthetic peptide; type: cell-based, Streptococcus thermophilus
Method: Similarly to the protocol used in example 4, strains LMD-9, LMG18311, CNRZ1066 and JIM8777 were pre-cultivated in M17-lactose medium. The cells of the precultures were harvested (5000 g, 9 minutes, 20° C.) and washed twice in CDM and then resuspended in CDM. The washed cells were diluted in fresh CDM medium to obtain an optical density of 0.05, and then incubated at 37° C. After 1.5 h of incubation, in one set of experiment, 1 μM of one of the tested synthetic peptides and 1 μg/mL of pGIUD0855ery DNA (in case of S. thermophilus strains), or 1 μg/ml of pG+host09 DNA (in case of S. salivarius strains) were added to the culture, whereas 1 μg/mL of DNA but no synthetic peptide was added to the second set of experiment. The cultures were grown during 6 hours and serial dilutions were plated on the surface of M17-lactose agar medium containing 2.5 μg/mL of erythromycin to measure transformation efficiency. Transformed S. thermophilus and S. salivarius cells are selected at 37° C. and 29° C., respectively.
Similarly to the protocol used in example 4, various S. thermophilus strains, including LMD-9, CNRZ1066 and LMG18311 used as controls, were pre-cultivated in M17-lactose medium. The cells of the precultures were harvested (5000 g, 9 minutes, 20° C.) and washed twice in CDM and then resuspended in CDM. The washed cells were diluted in fresh CDM medium to obtain an optical density of 0.05, and then incubated at 37° C. After 1.5 h of incubation, in one set of experiment, 1 μM of one of the tested synthetic peptides (LPYFAGCL) (SEQ ID NO: 85) and 1 μg/mL of pGIUD0855cat DNA were added to the culture, whereas 1 μg/mL of DNA but no synthetic peptide was added to the second set of experiment. Plasmid pGIUD0855cat is a pUC18-derivative containing a chloramphenicol resistance cassette flanked by 1-kb fragments corresponding to the upstream and downstream regions of stu0855. Upon transformation, it promotes the genetic replacement of stu0855 by P32-cat through homologous recombination (FIG. 7). The cultures were grown during 6 hours and serial dilutions were plated on the surface of M17-lactose agar medium containing 5 μg/mL of chloramphenicol to measure transformation efficiency. Transformed S. thermophilus cells were selected at 37° C.; when transformants were obtained, the transformation efficiency was calculated and is given in Table 9.
Day 2: • Centrifuge Day 1—culture (centrifugation parameters: 5000 g, 9 minutes, 15° C.) and perform two washing steps with one volume (10 mL) of CDM (centrifugation parameters: 5000 g, 9 minutes, 15° C.). • Dilute the culture in 10 mL CDM to obtain an OD600nm of 0.05. • A small volume of S. thermophilus cultures (300 μL) is then transferred in white microplate with a transparent bottom (655095; Greiner, Alphen aid Rijn, The Netherlands) and is grown at 37° C. Luminescence at 595 nm and optical density at 600 nm are recorded with the automatic Synergy HT multi-mode microplate reader. The luciferase activity catalysed by LuxAB requires the presence of nonanal as substrate. In this experimental set-up, nonanal (Acros Organics ref. 204-688-5) is supplied to the cultures by placing 50 μL of a solution containing 1% nonanal diluted in mineral oil in the spaces between the wells of a covered microplate (11). […] The luminescence and absorbance are scanned every 10 minutes during 6 hours. • To perform a competence experiment, 1 μg of donor DNA is added in the 300 μL samples in the beginning of incubation. […]

S. thermophilus LMG18311 = assay: as above; type: cell-based, Streptococcus thermophilus
[1] = 1 μM LPYFAGCL, 1 μg/mL pUC18_stu0855::P32cat, chloramphenicol selection
[2] = 1 μM PYFAGCL, 1 μg/mL pGIUD0855ery

Substance | Transformation rate, With peptide addition (S. thermophilus CNRZ1066; [1]) | Transformation rate, With peptide addition (S. thermophilus LMG18311; [1]) | Calculated efficiency of transformation (S. thermophilus LMG18311; LPYFAGCL-induced competence, forty six μg of LMD-9 genomic DNA, selection on CDM agar deprived of histidine) [µg⁻¹] | Transformation rate, With peptide addition (S. thermophilus CNRZ1066; [2]) | Complementation of the transformation defect in CDM (S. thermophilus CNRZ1066; 1 μM peptide, result in words) | Transformation rate, With peptide addition (S. thermophilus LMG18311; [2]) | Increase of efficiency of transformation upon peptide addition (S. thermophilus LMG18311; 1 μM peptide in CDM versus no peptide) [fold]
LPYFAGCL (fragment) [synthetic peptide corresponding to a C-terminal fragment of Shp316] | 3 × 10^−2 | 1.3 × 10^−1 | 0.00016 | – | – | – | –
PYFAGCL (fragment) | – | – | – | 3.69 × 10^−4 | complements the transformation defect | 3.17 × 10^−4 | 1000
